Data published in patent US20170114128A1, “USE OF TGF-BETA ANTAGONISTS OF TREAT TYPE-2 DIABETES” (ALBERT EINSTEIN COLLEGE OF MEDICINE, INC., priority 2014, published 2017).
*1 amine or outer side, *2 acyl side, *3 side chain or, on linkers, in order; H or OH if unused. Where a SMILES comes first, the peptide text is derived from it. Bridges are numbered along the chain shown (N, C = ends). Roman numbers before positions name the chains, in order. [ ]: non-standard residue; d: D form. Actinocin(9to1) = Cc1c2oc3c(C)ccc(C(=O)[*:1])c3nc-2c(C(=O)[*:2])c(N)c1=O; NMeV = CN[C@H](C(=O)O)C(C)C; Sar = CNCC(=O)O

Legend:
[1] = tested on: C57BL/6 mice with HFD-induced obesity; assay: Third-ventricle injection of TGFβ antagonist, GTT and ITT in mice with HFD-induced obesity; assay type: in vivo; details: HFD for 3 months; single injection in the third ventricle, overnight-fasted; vs vehicle; 2-hour treatment duration
Description: (§1) Central TGFβ blockade reverses glucose disorder under obesity or aging: It was studied whether TGFβ blockade could be applied to the CNS in order to reverse glucose and insulin disorders under disease conditions. To address this question, a mouse model was employed with HFD-induced obesity and therefore glucose and insulin intolerance. In this study, C57BL/6 mice were maintained under a HFD vs. a chow for 3 months. Subsequently, TGFβ antagonist SB431542 vs. vehicle was administrated to overnight-fasted mice through pre-implanted cannula. […] In parallel, using aging paradigm, it was further asked if TGFβ blockade could be used to intervene with glucose and insulin disorders independently of HFD feeding. To address this question, a similar procedure was applied to young vs. old mice; both mice were maintained on a normal chow since weaning. As shown in FIG. 7e-h, aging was associated with impairment of glucose tolerance and insulin tolerance in control group. […] Altogether, central inhibition of TGFβ through a pharmacological approach acutely normalizes the brain function to improve glucose and insulin homeostasis and treat type-2 diabetes.
(§2) Animals. […] Food intake and body weight of mice were measured using a laboratory scale. […] Blood glucose levels during GTT and ITT were measured with LifeScan® blood glucose monitoring system. […]

[2] = tested on: old mice maintained on a normal chow; assay: Third-ventricle injection of TGFβ antagonist, GTT and ITT in aging paradigm; assay type: in vivo; details: hypothalamic third-ventricle injection
Description: as §1, §2

[3] = tested on: hypothalamic GT1-7 cells; assay: IκBα mRNA levels in GT1-7 cells after TGF-β1 treatment; assay type: cell-based; details: transcription inhibitor added to TGF-β1-treated cells
Description: TGF-β degrades IκBα mRNA to atypically activate NF-κB: RNA SGs/PBs have the function to degrade mRNAs by targeting the AU-rich element (AUE) at the 3′ untranslated region (UTR) (36-38). […] This information led to the suspicion that TGF-β could work to degrade IκBα mRNA. […] To test if TGF-β induced IκBα mRNA decay is accountable for the glucose metabolism disorder, an experiment was designed to study if the pro-diabetic effect of brain TGF-β excess could be reversed through directly increasing hypothalamic IκBα mRNA. Using an approach which was established previously (23), a lentiviral system was employed to deliver exogenous Iκbα mRNA into the mediobasal hypothalamus of chow-fed C57BL/6 mice, and indeed, this lentivirus-delivered Iκbα mRNA prevented TGF-β1 injection from activating hypothalamic NF-κB (FIG. 5f). Metabolic analysis confirmed that this treatment attenuated the effect of TGF-β1 from impairing insulin-dependent glucose control (FIG. 5g).
Cell culture. GT1-7 cells were cultured as described previously (14). Briefly, GT1-7 cells were maintained in Dulbecco's Modified Eagle's Medium (Invitrogen) with 10% fetal bovine serum (Hyclone) and penicillin/streptomycin (Invitrogen), at 37° C. in a humidified atmosphere containing 5% CO2. Cells were fasted in serum-free medium for an overnight period, and then were subjected to TGF-β1 treatment at the indicated dose and time course.

| SMILES | glucose intolerance (GTT) [1] | insulin intolerance (ITT) [1] | glucose intolerance (GTT) [2] | insulin intolerance (ITT) [2] | IκBα mRNA decay [3] |
| --- | --- | --- | --- | --- | --- |
| NC(=O)c1ccc(-c2nc(-c3ccc4c(c3)OCO4)c(-c3ccccn3)[nH]2)cc1 [SB431542, 4-[4-(1,3-benzodioxol-5-yl)-5-(2-pyridinyl)-1H-imidazol-2-yl]benzamide] | significantly reduced | significantly reduced | significant reductions | significant reductions | – |
| Cc1c2oc3c(C)ccc(C(=O)N[C@@H]4C(=O)N[C@H](C(C)C)C(=O)N5CCC[C@H]5C(=O)N(C)CC(=O)N(C)[C@@H](C(C)C)C(=O)O[C@@H]4C)c3nc-2c(C(=O)N[C@@H]2C(=O)N[C@H](C(C)C)C(=O)N3CCC[C@H]3C(=O)N(C)CC(=O)N(C)[C@@H](C(C)C)C(=O)O[C@@H]2C)c(N)c1=O [actinomycin D, reference compound] (I: T[dV]P[Sar][NMeV] / II: T[dV]P[Sar][NMeV]; ester I:1-I:C, II:1-II:C; linker I:N-II:N via Actinocin(9to1)) | – | – | – | – | further accelerated |
